assay: recombinant UMI read abundance after kanamycin selection (control-corrected) (log10(CPM+1)); higher = more efficient recombination; extreme values may be limits of the assay; sequences stand for … in AGTGCAGAGAAAATCGGCCAGTTTTCTCTGCCTGCAGTCCGCATGCCGTGGGACCCCTTGGGTTCTAACCTGTTGCCTAGATTTATGCAGCGGACTGCCTTTCTCCCAAAGTGATAAACCGG…AGGTTGGTTTCACT; site = the 11-nt donor
Procedure, shortened: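 Sequenced counts of recombinant UMIs were turned into CPM, averaged across replicates and scaled with control-derived factors. The reported figure is log10(CPM+1). Those UMIs, each 12 nt long, tagged donor and donor-binding-loop pairs on a plasmid with a promoterless kanamycin gene, screened as a pool in Escherichia coli with IPTG (0.07 mM) plus kanamycin or without selection.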
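Note: IS621 bridge recombinase in Escherichia coli cells against a fixed T5 target plasmid.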

Point of comparison: “CATAAAGCATGGACCGGTTTTCCCGGTAATCCGTATTTGAT (site CTTAAAGCTAT)”, “recombinant UMI read abundance (log10)” value 0. Against it:
- CAGTCGACATGGACCGGTTTTCCCGGTAATCCGTATTTGGT (site CAGTCGACTTC) — higher, 0.56
- CAGTGCTCATGGACCGGTTTTCCCGGTAATCCGTATTTGGT (site CAGTGCTCTAC) — higher, 2.49
- CAGTTGACATGGACCGGTTTTCCCGGTAATCCGTATTTGGG (site CAGTAGACTCC) — the same, 0
- CAGTTGACATGGACCGGTTTTCCCGGTAATCCGTATTTGGG (site CAGTCGACTCC) — within 0.2 log units, 0.0208
- CAGTTGACATGGACCGGTTTTCCCGGTAATCCGTATTTGGG (site CAGTGGACTCC) — within 0.2 log units, 0.00569
- CAGTTGACATGGACCGGTTTTCCCGGTAATCCGTATTTGGG (site CAGTTGACTCC) — higher, 0.53
- CATAAAGCATGGACCGGTTTTCCCGGTAATCCGTATTTGAT (site CATAAAGCTAT) — higher, 2.1
- CATAAAGCATGGACCGGTTTTCCCGGTAATCCGTATTTGAT (site CCTAAAGCTAT) — within 0.2 log units, 0.00418
- CATAAAGCATGGACCGGTTTTCCCGGTAATCCGTATTTGAT (site CGTAAAGCTAT) — within 0.2 log units, 0.166
- CATACGCCATGGACCGGTTTTCCCGGTAATCCGTATTTGGG (site CATACGCCTCC) — within 0.2 log units, 0.0136
- CATCAGCCATGGACCGGTTTTCCCGGTAATCCGTATTTGAG (site CATCAGCCTCT) — higher, 0.441
- CATCAGTCATGGACCGGTTTTCCCGGTAATCCGTATTTGCA (site CATCAGTCTTG) — higher, 3.13
- CATCCAACATGGACCGGTTTTCCCGGTAATCCGTATTTGTC (site CATCCAACTGA) — higher, 2.17
- CATCGCACATGGACCGGTTTTCCCGGTAATCCGTATTTGGC (site CATCGCACTGC) — higher, 2.26
- CATCGCCCATGGACCGGTTTTCCCGGTAATCCGTATTTGAT (site CATCGCCCTAT) — higher, 0.725
- CATCTCTCATGGACCGGTTTTCCCGGTAATCCGTATTTGTA (site CATCTCTCTTA) — higher, 2.66
- CATCTCTCATGGACCGGTTTTCCCGGTAATCCGTATTTGTA (site CCTCTCTCTTA) — higher, 1.42
- CATCTCTCATGGACCGGTTTTCCCGGTAATCCGTATTTGTA (site CGTCTCTCTTA) — higher, 1.23
- CATCTCTCATGGACCGGTTTTCCCGGTAATCCGTATTTGTA (site CTTCTCTCTTA) — higher, 1.98
- CATGAGGCATGGACCGGTTTTCCCGGTAATCCGTATTTGGT (site CATGAGGCTAC) — higher, 1.12
- CATGCCTCATGGACCGGTTTTCCCGGTAATCCGTATTTGCT (site CATGCCTCTAG) — higher, 2.76
- CATGGAACATGGACCGGTTTTCCCGGTAATCCGTATTTGGA (site CATGGAACTTC) — higher, 1.99
- CATGGCACATGGACCGGTTTTCCCGGTAATCCGTATTTGGA (site CATGGCACTTC) — higher, 0.46
- CATGTCACATGGACCGGTTTTCCCGGTAATCCGTATTTGGG (site CAAGTCACTCC) — within 0.2 log units, 0.0107
- CATGTCACATGGACCGGTTTTCCCGGTAATCCGTATTTGGG (site CACGTCACTCC) — within 0.2 log units, 0.0251
- CATGTCACATGGACCGGTTTTCCCGGTAATCCGTATTTGGG (site CAGGTCACTCC) — within 0.2 log units, 0.0142
- CATGTCACATGGACCGGTTTTCCCGGTAATCCGTATTTGGG (site CATGTCACTCC) — within 0.2 log units, 0.00831
- CATGTGGCATGGACCGGTTTTCCCGGTAATCCGTATTTGCT (site CATGTGGCTAG) — higher, 1.39
- CATGTTCCATGGACCGGTTTTCCCGGTAATCCGTATTTGTT (site CATGTTCCTAA) — higher, 0.678
- CATTCAACATGGACCGGTTTTCCCGGTAATCCGTATTTGAC (site CATTCAACTGT) — higher, 0.406
- CATTGTACATGGACCGGTTTTCCCGGTAATCCGTATTTGGG (site CATTGTACTCC) — within 0.2 log units, 0.0267
- CATTTCTCATGGACCGGTTTTCCCGGTAATCCGTATTTGTT (site CATTTCTCTAA) — higher, 1.52
- CATTTGCCATGGACCGGTTTTCCCGGTAATCCGTATTTGTG (site CATTTGCCTCA) — higher, 0.302
- CCAAAACCATGGACCGGTTTTCCCGGTAATCCGTATTTGTT (site CCAAAACCTAA) — within 0.2 log units, 0.00598
- CCAAAGGCATGGACCGGTTTTCCCGGTAATCCGTATTTGCC (site CCAAAGGCTGG) — the same, 0
- CCAACTACATGGACCGGTTTTCCCGGTAATCCGTATTTGGC (site CCAACTACTGC) — the same, 0

Source: the supplement of paper PMC11208160
